Measurements from PMC6193938, “Characterization of a novel AICARFT inhibitor which potently elevates ZMP and has anti-tumor activity in murine models” (Scientific Reports, 2018).

Columns and labels:
[1] = system: A9 murine cell line; experiment: In vitro proliferation assay (Alamar Blue); assay type: cell-based
Protocol: Cells lines were acquired from cell banks, see supplemental material, grown using the cell banks recommended culture conditions (Supplemental Table 3). In some experiments noted “low folate” the cells were washed and grown in folate free RPMI-1640 media (Gibco #27016-021) supplemented with 5 ml 1 M Hepes, 5 ml 100 mM Na pyruvate, 2.5 mg/ml glucose and 10% defined FBS (Hyclone #SH30070) per 500 mL media for 5–7 days to deplete intracellular folate levels prior to the start of the experiment. Where noted, cells were maintained in complete “high folate” RPMI-1640 media (ATCC #30-2001) with 10% defined FBS to contrast with the low folate conditions.
Cells were cultured using recommended culture conditions unless noted otherwise (Supplemental Table 3). Cells were plated, dosed with compound and incubated at 37 °C for approximately 2 doubling times as determined for each cell line. Cell Titer Glo (Promega) assay was used to measure proliferation according to manufacturer’s recommendations by measuring luminescence with Flexstation3 (Molecular Devices) with 500 ms integration time. […]
For a limited number of cell lines, compound dosing was performed under high or low folate conditions with cell viability being determined with Alamar Blue rather than an ATP dependent assay. […] The % inhibition for each sample was calculated and fit as described above.

[2] = Pharmacokinetic studies; assay type: in vivo; conditions: mouse
Protocol: Blood samples were obtained through tail clip at 0, 0.08 (IV only), 0.25, 0.75, 2, 4, 8, and 24 hours where approximately 20 µL of blood was filled to capacity into EDTA-coated capillary tubes (Fisher Scientific,) and spotted on to Whatman® DMPK-C DBS collection (GE Healthcare Bio-Sciences). Once spotted, the cards were allowed to dry for 2 hours, placed in Ziploc® bags (S.C. Johnson & Son, Inc.) and shipped to the bioanalytical facility at ambient temperature. Punches (3 mm) from DBS cards were extracted with 180 µL of a 20 ng/mL analog IS (proprietary Lilly compound) in methanol/acetonitrile (1:1, v/v) solution in 96-well plates. Samples were quantitated using LC-MS analysis (AB Sciex® API 4000 triple-quadrupole mass spectrometer (Life Technologies Corporation). PK parameters were calculated for concentration time profiles using Watson LIMS version 7.4 (Thermo Scientific).

[3] = target: T1, AURA (Homo sapiens, UniProt O14965); experiment: CEREP protein kinase assay; assay type: biochemical
T1 construct: purchased CEREP Panlabs (Eurofins)
T1 sequence (O14965 1-403): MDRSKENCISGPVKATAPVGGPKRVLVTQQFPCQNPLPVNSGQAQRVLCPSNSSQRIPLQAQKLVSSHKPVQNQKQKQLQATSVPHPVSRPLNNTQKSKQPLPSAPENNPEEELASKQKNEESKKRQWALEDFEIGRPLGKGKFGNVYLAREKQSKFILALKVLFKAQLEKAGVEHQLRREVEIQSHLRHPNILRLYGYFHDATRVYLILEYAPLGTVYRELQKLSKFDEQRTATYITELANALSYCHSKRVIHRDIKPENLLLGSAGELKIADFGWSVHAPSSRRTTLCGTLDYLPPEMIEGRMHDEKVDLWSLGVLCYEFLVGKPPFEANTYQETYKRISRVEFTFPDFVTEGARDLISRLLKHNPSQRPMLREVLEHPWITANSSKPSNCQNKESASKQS

[4] = target: T2, ERK1 (Homo sapiens, UniProt P27361); experiment: CEREP protein kinase assay; assay type: biochemical
T2 construct: purchased CEREP Panlabs (Eurofins)

[5] = target: T3, WEE1 (Homo sapiens, UniProt P30291); experiment: CEREP protein kinase assay; assay type: biochemical
T3 construct: purchased CEREP Panlabs (Eurofins)

[6] = male, CD-1, whole blood (dried blood spots), oral 10 mg/kg

T2 sequence (P27361 whole entry): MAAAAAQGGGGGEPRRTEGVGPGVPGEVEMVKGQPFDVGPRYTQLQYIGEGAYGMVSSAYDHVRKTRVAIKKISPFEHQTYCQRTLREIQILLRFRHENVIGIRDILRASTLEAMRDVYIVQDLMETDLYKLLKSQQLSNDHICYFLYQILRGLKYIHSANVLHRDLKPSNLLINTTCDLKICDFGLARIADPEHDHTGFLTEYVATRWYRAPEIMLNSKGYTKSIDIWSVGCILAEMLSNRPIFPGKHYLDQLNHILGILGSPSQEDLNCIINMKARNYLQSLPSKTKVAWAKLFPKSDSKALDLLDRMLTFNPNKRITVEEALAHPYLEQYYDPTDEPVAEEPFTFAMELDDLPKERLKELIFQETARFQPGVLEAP
T3 sequence (P30291 whole entry): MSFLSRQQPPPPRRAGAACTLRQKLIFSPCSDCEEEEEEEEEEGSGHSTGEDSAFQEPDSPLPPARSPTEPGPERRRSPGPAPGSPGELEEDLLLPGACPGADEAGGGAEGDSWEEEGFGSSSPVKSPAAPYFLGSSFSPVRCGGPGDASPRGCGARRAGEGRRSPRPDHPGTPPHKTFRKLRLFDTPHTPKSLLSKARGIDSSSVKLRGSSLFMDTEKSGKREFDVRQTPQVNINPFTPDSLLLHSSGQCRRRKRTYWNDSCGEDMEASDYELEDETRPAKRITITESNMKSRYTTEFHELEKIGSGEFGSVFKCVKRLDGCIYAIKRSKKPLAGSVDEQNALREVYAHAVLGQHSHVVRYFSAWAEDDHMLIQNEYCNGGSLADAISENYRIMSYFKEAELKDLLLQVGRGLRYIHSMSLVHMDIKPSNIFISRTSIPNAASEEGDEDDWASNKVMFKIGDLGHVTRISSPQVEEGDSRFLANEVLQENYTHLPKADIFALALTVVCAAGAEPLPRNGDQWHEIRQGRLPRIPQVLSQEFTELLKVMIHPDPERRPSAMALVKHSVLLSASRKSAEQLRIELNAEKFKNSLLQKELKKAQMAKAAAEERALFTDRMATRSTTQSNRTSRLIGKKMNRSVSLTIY

O=c1[nH]ccc2cc(F)c(NS(=O)(=O)c3ccc(N4CC[C@@H](O)C4)s3)cc12 [LSN3213128, N-(6-Fluoro-1-oxo-1,2-dihydroisoquinolin-7-yl)-5-[(3R)-3-hydroxypyrrolidin-1-yl]thiophene-2-sulfonamide]
IC50 ([1]; Mus musculus, RPMI media): 230 nM | anti-proliferative effect on hypoxanthine supplementation ([1]; hypoxanthine): not reversed | Vd ([2]; male, CD-1, whole blood (dried blood spots), intravenous 1 mg/kg, read-out: volume of distribution): 0.779 ± 0.17 L/kg | AUC [2, 6]: 20.2 ± 4.52 µM·h | Cmax [2, 6]: 4.57 ± 0.559 µM | bioavailability ([2]; male, CD-1, whole blood (dried blood spots), oral 10 mg/kg vs intravenous 1 mg/kg): 24.6 ± 4.6% | half-life ([2]; oral 10 mg/kg): 2.4 ± 0.3 h | unbound Cmax ([2]; oral 10 mg/kg): 0.251 ± 0.031 µM | inhibition at 0.2 µM ([3]; @ 0.2 uM): -4.11% | inhibition at 2 µM ([3]; @ 2 uM): 1.86% | inhibition at 20 µM ([3]; @ 20 uM): 4.28% | inhibition at 0.2 µM ([4]; @ 0.2 uM): -2.6% | inhibition at 2 µM ([4]; @ 2 uM): 9.15% | inhibition at 20 µM ([4]; @ 20 uM): 53.7% | inhibition at 0.2 µM ([5]; @ 0.2 uM): 1.15% | inhibition at 2 µM ([5]; @ 2 uM): 7.31% | inhibition at 20 µM ([5]; @ 20 uM): 14.2%
